According to patent US5149778A, “Cyclic peptides for treating herpes infections” (Bio-Mega, Inc., priority 1989, dated 1992):
Where a SMILES comes first, the peptide text is derived from it. Bridges are numbered along the chain shown (N, C = ends). [ ]: non-standard residue; d: D form. NMeV = CN[C@H](C(=O)O)C(C)C

Target: T1, HSV-1 ribonucleotide reductase (Human herpesvirus 1, UniProt P08543)
T1 construct: obtained from quiescent BHK-21/C13 cells infected with strain F HSV-1 virus; endogenous in cells; host or cells: quiescent BHK-21/C13 cells infected with HSV-1 strain F (10 pfu/cell); partially purified viral enzyme
Assay: Inhibition of Herpes Simplex Virus (HSV, type 1) ribonucleotide reductase
Format: biochemical
Settings: partially purified enzyme from BHK-21/C13 cells infected with strain F HSV-1; relative to control without peptide; mean of four assays; read-out: IC50 (concentration of the peptide producing 50% of the maximal inhibition of enzyme activity)
From the text: Inhibition of Herpes Simplex Virus (HSV, type 1) Ribonucleotide Reductase
HSV-1 ribonucleotide reductase (partially purified) was obtained from quiescent BHK-21/C13 cells infected with strain F HSV-1 virus at 10 plaque forming units/cell as described by E. A. Cohen et al., J. Gen. Virol., 66, 733 (1985).
The procedure described by P. Gaudreau et al., J. Biol, Chem., 262, 12413 (1987) was employed. The assay result for each peptide is expressed as the concentration of the peptide producing 50% of the maximal inhibition (IC50) of enzyme activity. The number of units of the enzyme preparation used in each assay was constant, based on the specific activity of the enzyme preparation. The results are relative to the activity obtained in control experiments without peptide and represent the mean of four assays that varied less than 10% with each other.

T1 sequence (P08543 whole entry): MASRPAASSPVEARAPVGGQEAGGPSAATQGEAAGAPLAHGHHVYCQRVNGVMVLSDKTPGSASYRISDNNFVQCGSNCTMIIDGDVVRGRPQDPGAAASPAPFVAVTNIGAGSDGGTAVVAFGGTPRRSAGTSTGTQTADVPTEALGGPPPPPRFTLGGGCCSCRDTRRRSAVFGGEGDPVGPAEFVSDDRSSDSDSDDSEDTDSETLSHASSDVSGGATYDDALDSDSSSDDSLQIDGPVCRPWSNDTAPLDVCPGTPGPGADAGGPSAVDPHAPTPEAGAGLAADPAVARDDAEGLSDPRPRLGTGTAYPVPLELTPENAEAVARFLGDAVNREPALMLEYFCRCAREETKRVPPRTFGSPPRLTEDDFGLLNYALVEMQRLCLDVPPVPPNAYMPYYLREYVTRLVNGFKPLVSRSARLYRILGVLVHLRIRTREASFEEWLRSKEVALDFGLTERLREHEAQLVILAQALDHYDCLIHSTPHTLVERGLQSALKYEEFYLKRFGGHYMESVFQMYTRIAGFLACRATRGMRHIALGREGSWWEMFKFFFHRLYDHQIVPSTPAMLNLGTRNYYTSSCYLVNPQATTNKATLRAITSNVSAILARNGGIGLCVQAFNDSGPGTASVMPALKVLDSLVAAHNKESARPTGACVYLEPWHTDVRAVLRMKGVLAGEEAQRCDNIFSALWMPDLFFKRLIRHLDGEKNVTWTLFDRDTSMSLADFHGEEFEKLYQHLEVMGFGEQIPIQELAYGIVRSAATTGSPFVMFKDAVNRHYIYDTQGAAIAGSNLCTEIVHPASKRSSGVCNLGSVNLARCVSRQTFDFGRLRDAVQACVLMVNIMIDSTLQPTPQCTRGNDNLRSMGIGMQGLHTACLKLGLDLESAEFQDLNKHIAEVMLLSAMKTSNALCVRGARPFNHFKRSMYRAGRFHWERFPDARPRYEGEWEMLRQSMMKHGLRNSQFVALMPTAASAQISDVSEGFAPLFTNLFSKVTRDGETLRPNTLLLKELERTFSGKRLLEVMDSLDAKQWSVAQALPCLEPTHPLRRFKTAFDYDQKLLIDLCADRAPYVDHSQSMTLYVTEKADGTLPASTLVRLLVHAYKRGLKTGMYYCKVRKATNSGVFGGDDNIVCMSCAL

| Compound | IC50 |
| --- | --- |
| CC[C@H](C)[C@@H]1NC(=O)[C@H](C(C)C)NC(=O)[C@H](Cc2ccc(O)cc2)NC(=O)C[C@@H](C(=O)N[C@@H](CC(=O)O)C(=O)N[C@@H](CC(C)C)C(=O)O)NC1=O [example 1] (YVIDDL-OH; lactam N-4) | 14.3 µM |
| CC[C@H](C)[C@@H]1NC(=O)[C@H](C(C)C)N(C)C(=O)[C@H](Cc2ccc(O)cc2)NC(=O)C[C@@H](C(=O)N[C@@H](CC(=O)O)C(=O)N[C@@H](CC(C)C)C(=O)O)NC1=O [example 2] (Y[NMeV]IDDL-OH; lactam N-4) | 140 µM |
| CC[C@H](C)[C@@H]1NC(=O)[C@H](C(C)C)NC(=O)[C@H]([C@@H](C)O)NC(=O)CNC(=O)[C@H](C)NC(=O)[C@H](Cc2ccc(O)cc2)NC(=O)C[C@@H](C(=O)N[C@@H](CC(=O)O)C(=O)N[C@@H](CC(C)C)C(=O)O)NC1=O [example 3] (YAGTVIDDL-OH; lactam N-7) | 16 µM |
